Assay results: publication PMC7699524, “Assessing the Intestinal Permeability and Anti-Inflammatory Potential of Sesquiterpene Lactones from Chicory” (Nutrients, 2020)
Marks after values point to notes of the source that are not given here. Blank lines part the entries; values can stand above or below the compound they belong to.

Experiments:
Caco-2 cells = assay: Permeability across Caco-2 monolayer (apical concentration by LC-MS); conditions: for % of Decrease in SL Concentration in the Apical Side (t = 4h) / SL conjugates with cysteine in the apical side after 4 h / Concentration of SL (Apical Side) t = 4 h / Concentration of SL (Apical Side) t = 0 h: Caco-2 monolayer; for % of Decrease in SL Concentration in the Apical Side (t = 4h): 10 µM apical, 4 h vs t = 0 h; for Concentration of SL (Apical Side) t = 4 h / Concentration of SL (Apical Side) t = 0 h: SL added at 10 µM apical; for Concentration of SL (Apical Side) t = 4 h: after 4 h; for Concentration of SL (Apical Side) t = 0 h: before experiment
Procedure: For intestinal permeability assessments of pure SLs, Caco-2 cells were seeded in 12 mm Transwell® inserts (polyester membrane, 0.4 μm pore size, Corning Costar Corp., NY, USA) at a density of 1.0 × 10^5 cell/cm^2. Cells were allowed to grow and differentiate to a confluent monolayer for 21 days postseeding with medium change three times per week. This mimics the apical and basolateral sides of the intestinal mucosa. Before the permeability assay, cells were washed with Hank’s balanced salt solution (HBSS) (Gibco, Life Technologies, Paisley, UK), and pure SLs in HBSS were added to the apical side for 4 h at the noncytotoxic concentration of 10 μM, while the basolateral well was replaced by HBSS. The fluorescent marker fluorescein (2.7 µM) was used as control, having been submitted to the same protocol as the SLs. Cells were submitted to an orbital shaking of 125 rpm (Ohaus, Shanghai, China), and samples from the basolateral side were collected after 15 min, 30 min, and then every hour until the end of the assay, and each time the retrieved volume was replaced by fresh HBSS to maintain sink conditions. After the 4 h assay, both apical and basolateral contents were collected, the cells were washed with PBS followed by culture medium, and culture medium was added to both compartments for 24 h to assess monolayer recovery. All samples were stored at −80 °C until LC-MS analysis.
Transepithelial electrical resistance (TEER) of all monolayers was monitored before and during experiments, and 24 h after the assay, to ensure their integrity using an EVOM™ voltmeter (WPI, Berlin, Germany). Before each experiment, TEER was measured and only monolayers with a TEER value higher than 500 Ω cm^2 were used. Experiments were done in triplicate.
Ultra High Performance Liquid Chromatography (UHPLC) separations were performed with a Dionex U3000 UHPLC coupled with a U3000 Photo Diode Array (PDA) and an LTQ-Orbitrap XL Mass Spectrometry (MS) system (Thermo-Fisher Ltd., Hemel Hempstead, UK). The MS and PDA systems were tuned and calibrated according to the manufacturers recommended procedures. The UHPLC was operated under Xcalibur and Chromeleon software (Thermo-Fisher Ltd. UK). A flow rate of 300 µL/min was applied, the column and guard (Synergi C18 Hydro-RP 80 Ä, 150 × 2.0 mm, 4 µm particle size; Phenomenex Ltd. U.K.) were maintained at a temperature of 30 °C. The solvent system compositions were, A: HPLC grade water (J.T. Baker, Scientific Chemical Supplies Ltd. UK), and solvent B: HPLC grade acetonitrile (J.T. Baker, Scientific Chemical Supplies Ltd. UK), both acidified with 0.1% MS grade formic acid (Ultima, Fisher Scientific, UK). A sample injection volume of 10 µL was employed in partial-loop mode. The gradient program was as follows: hold 2% B 0–2 min, 2–5% B 2–5 min, 5–45% B 5–25 min, 45–100% B 25–35 min, hold 100% B 35–38 min, 100–2% B 38–39 min, hold 2% B 39–44 min. Autosampler syringe and line washes were performed with 2:8 HPLC grade water: acetonitrile (J.T. Baker, Scientific Chemical Supplies Ltd., UK). The HPLC column eluent was first monitored by the U3000 PDA detector where spectra were collected in wavelength/absorbance mode from 200–600 nm. Additionally, three channel set points were employed, Channel A 210 nm, Channel B 260 nm, Channel C 320 nm. Spectra were collected with a filter bandwidth of 8 nm and wavelength step of 1 nm, the scan rate was 5 Hz.
The UHPLC eluent was next transferred to a Thermo LTQ-Orbitrap XL mass spectrometry system operated under Xcalibur (Thermo-Fisher Ltd. UK). For the first two minutes of analysis the UHPLC eluent was diverted to waste, from two to 39 min the eluent was directed to the MS detector, before being diverted back to waste between 39–44 min. Mass spectra were collected in centroid mode with a primary full scan event (m/z 100–1000) at a mass resolution of 30,000 (FWHM defined at m/z 400) within the Fourier Transform (FT) detector.

calcineurin-Crz1 pathway = assay: β-Galactosidase CDRE-lacZ yeast reporter assay of Crz1 activation; format: cell-based, S. cerevisiae; conditions: Saccharomyces cerevisiae, MnCl2 3 mM activation, strain YAA5; for inhibition at 12.5 µM: read-out: Calcineurin-Crz1 Inhibition (%) ± SD, 12.5 µM
Procedure: Cultures at OD600= 0.5 ± 0.05 were diluted to OD600= 0.1 ± 0.01, transferred to 96-well microplate and challenged with the highest nontoxic concentration previously determined for each compound to investigate their putative inhibitory effect towards the calcineurin-responsive zinc finger (Crz1) activation. Measurements of β-galactosidase activity driven by the calcineurin-dependent response element (CDRE) regulated lacZ reporter gene allowed the quantitative assessment of the capacity of each compound to inhibit the activation of Crz1. FK506 (Cayman Chemicals, Ann Arbor, MI, USA) was used as a positive control at a final concentration of 12.5 μM. After 90 min of incubation with the respective compounds at 30 °C under orbital shaking, MnCl2 (Merck, Saint Louis, MO, USA) was added at a final concentration of 3 mM. After 90 min of incubation under the same conditions, OD600 of cultures were recorded, 10 μL of cell suspensions were transferred to a new 96-well plate followed by addition of 20 μL Y-PER cell lysis reagent (ThermoFisher Scientific), and the plates were incubated for 20 min at 37 °C without agitation. 240 μL of LacZ buffer (8.5 g/L Na2HPO4 (ROTH), 5.5 g/L NaH2PO4.H2O (Merck), 0.75 g/L KCl (Panreac), 0.246 g/L MgSO4.7H2O (Merck) containing […] o-nitrophenyl β-D-galactopyranoside (ONPG) (Sigma–Aldrich®—Poole, Dorset, UK) was added to each well, and plates were incubated at 30 °C for 2 h. The OD420 and OD550 were monitored using a Biotek Power Wave XS Microplate Spectrophotometer (Biotek® Instruments, Winooski, VT, USA). The results were expressed as Miller units (MU), applying the following equation, where V = volume of culture assayed in mL; t = reaction time in minutes: Miller unit = 1000 × (OD420 − 1.75 × OD550)/(t × V × OD600)(1)

yeast cells = assay: Yeast cell viability (Cell Titer Blue); format: cell-based, S. cerevisiae; conditions: Cell Titer Blue assay
Procedure: Doses of SLs ranging from 12.5 μM to 100 μM for each compound were used in the yeast viability assays. Cultures obtained were diluted to a final OD600 = 0.025 ± 0.0025. The viability assays were performed in 96-wells microplates using 100 µL of diluted culture suspensions and 10 µL of Cell Titer Blue reagent (Promega, WI, USA) according to manufacturer’s instructions for 3 h at 30 °C. Fluorescence was measured in 30 min intervals at emission wavelength 580 nm using the Biotek Power Wave XS Microplate Spectrophotometer (Biotek® Instruments, Winooski, VT, USA).

[1] = Caco-2 apical side, conjugates estimated against calibration curves of parent SLs
[2] = LC-MS, apical side, t = 4 h, parent SLs added at 10 μM

Compound: CC1=C2C(=O)C=C(CO)C2C2OC(=O)C(C)C2C(OC(=O)Cc2ccc(O)cc2)C1 (stereo not drawn) [11β,13-dihydrolactucopicrin]
% of Decrease in SL Concentration in the Apical Side (t = 4h) (Caco-2 cells): 29.9 * % | SL conjugates with cysteine in the apical side after 4 h (Caco-2 cells; LC-MS): not detected | Concentration of SL (Apical Side) t = 4 h (Caco-2 cells): 4.9 ± 0.9 µM | Concentration of SL (Apical Side) t = 0 h (Caco-2 cells): 7.0 ± 1.2 µM | inhibition at 12.5 µM (calcineurin-Crz1 pathway): 26 ± 11%

Compound: C/C1=C\[C@H]2OC(=O)C(CSC[C@H](N)C(=O)O)[C@@H]2CC/C(C)=C/CC1 (stereo partly drawn) [Costunolide-Cys]
Apical Concentration t = 4 h (µM Equivalents to Parent SL) (Caco-2 cells; [1]): 95 ± 8.4 µM Equivalents to Parent SL | Peak Area (Average a.u.) (Caco-2 cells; [2]): 3.1 × 10^8 a.u.

Compound: C=C1C(=O)O[C@@H]2/C=C(\C)CC/C=C(\C)CC[C@@H]12 [Costunolide]
Apical Concentration t = 4 h (µM Equivalents to Parent SL) (Caco-2 cells; [1]): <LOD | % of Decrease in SL Concentration in the Apical Side (t = 4h) (Caco-2 cells): 100 ** % | SL conjugates with cysteine in the apical side after 4 h (Caco-2 cells; LC-MS): detected | Concentration of SL (Apical Side) t = 4 h (Caco-2 cells): <LOD | Concentration of SL (Apical Side) t = 4 h (Caco-2 cells; listed as costunolide): LOQ | Concentration of SL (Apical Side) t = 0 h (Caco-2 cells): 13.1 ± 1.8 µM | Highest nontoxic concentration in yeast (yeast cells): 6.25 µM | inhibition at 6.25 µM (calcineurin-Crz1 pathway; read-out: Calcineurin-Crz1 Inhibition (%) ± SD, 6.25 µM): 18 ± 9%

Compound: C=CC[C@@H]1/C=C(\C)C[C@H](C)C[C@H](OC)[C@H]2O[C@@](O)(C(=O)C(=O)N3CCCC[C@H]3C(=O)O[C@H](/C(C)=C/[C@@H]3CC[C@@H](O)[C@H](OC)C3)[C@H](C)[C@@H](O)CC1=O)[C@H](C)C[C@@H]2OC [FK506, reference compound]
inhibition at 12.5 µM (calcineurin-Crz1 pathway): 67 ± 13%

Compound: C=C1C(=O)O[C@@H]2[C@H]3C(CO)=CC(=O)C3=C(C)C[C@H](O)[C@@H]12 [Lactucin, lactucin]
Apical Concentration t = 4 h (µM Equivalents to Parent SL) (Caco-2 cells; [1]): 5.9 ± 0.5 µM Equivalents to Parent SL | % of Decrease in SL Concentration in the Apical Side (t = 4h) (Caco-2 cells): 28.8 *** % | % of Decrease in SL Concentration in the Apical Side (t = 4h) (Caco-2 cells; listed as lactucin): ≈ 30% | SL conjugates with cysteine in the apical side after 4 h (Caco-2 cells; LC-MS): detected | Concentration of SL (Apical Side) t = 4 h (Caco-2 cells): 5.9 ± 0.5 µM | Concentration of SL (Apical Side) t = 0 h (Caco-2 cells): 8.3 ± 0.7 µM | Peak Area (Average a.u.) (Caco-2 cells; [2]): 6.8 × 10^7 a.u. | inhibition at 12.5 µM (calcineurin-Crz1 pathway): 20 ± 14%

Apical Concentration t = 4 h (µM Equivalents to Parent SL) (Caco-2 cells; Caco-2): 2.9 ± 3.6 µM Equivalents to Parent SL
Compound: CC1=C2C(=O)C=C(CO)C2C2OC(=O)C(CSCC(N)C(=O)O)C2C(O)C1 (stereo not drawn) [Lactucin-Cys]

Compound: C=C1C(=O)O[C@@H]2[C@H]3C(CO)=CC(=O)C3=C(C)C[C@H](OC(=O)Cc3ccc(O)cc3)[C@@H]12 [Lactucopicrin, lactucopicrin]
Apical Concentration t = 4 h (µM Equivalents to Parent SL) (Caco-2 cells; [1]): <LOQ | % of Decrease in SL Concentration in the Apical Side (t = 4h) (Caco-2 cells): 100 ** % | SL conjugates with cysteine in the apical side after 4 h (Caco-2 cells; LC-MS): detected | Concentration of SL (Apical Side) t = 4 h (Caco-2 cells): <LOQ | Concentration of SL (Apical Side) t = 4 h (Caco-2 cells; listed as lactucopicrin): LOQ | Concentration of SL (Apical Side) t = 0 h (Caco-2 cells): 12.4 ± 1.3 µM | Peak Area (Average a.u.) (Caco-2 cells; [2]): 1.2 × 10^6 a.u. | inhibition at 12.5 µM (calcineurin-Crz1 pathway): 18 ± 9%

Apical Concentration t = 4 h (µM Equivalents to Parent SL) (Caco-2 cells; Caco-2): 17.8 ± 2.9 µM Equivalents to Parent SL
Compound: CC1=C2C(=O)C=C(CO)C2C2OC(=O)C(CSCC(N)C(=O)O)C2C(OC(=O)Cc2ccc(O)cc2)C1 (stereo not drawn) [Lactucopicrin-Cys]

Compound: C=C1C(=O)O[C@H]2[C@H]1CC/C(C)=C/CC[C@@]1(C)O[C@@H]21 [Parthenolide, parthenolide, reference compound]
Apical Concentration t = 4 h (µM Equivalents to Parent SL) (Caco-2 cells; [1]): <LOQ | % of Decrease in SL Concentration in the Apical Side (t = 4h) (Caco-2 cells): 100 ** % | SL conjugates with cysteine in the apical side after 4 h (Caco-2 cells; LC-MS): detected | Concentration of SL (Apical Side) t = 4 h (Caco-2 cells): <LOQ | Concentration of SL (Apical Side) t = 0 h (Caco-2 cells): 11.9 ± 2.0 µM | Peak Area (Average a.u.) (Caco-2 cells; human, Caco-2, 4 h, 10 µM): 9.2 × 10^5 a.u. | inhibition at 12.5 µM (calcineurin-Crz1 pathway): 20 ± 12%

Apical Concentration t = 4 h (µM Equivalents to Parent SL) (Caco-2 cells; Caco-2): 27 ± 5.9 µM Equivalents to Parent SL
Compound: CC1=CCCC2(C)OC2C2OC(=O)C(CSCC(N)C(=O)O)C2CC1 (stereo not drawn) [Parthenolide-Cys]
